The text below walks through data of patent US11370774B2, “Substituted benzofuran, benzopyrrole, benzothiophene, and structurally related complement inhibitors” (BioCryst Pharmaceuticals, Inc., priority 2018, dated 2022).

Some results are limits rather than exact numbers.

This test deals with Factor D (Homo sapiens (Human), UniProt P00746). Put plainly: Factor D esterolytic assay (Z-Lys-SBzl substrate, DTNB, 405 nm). As to conditions: Z-Lys-SBzl 1.29 mM, pH 7.5, 10% DMSO, tested a minimum of three times, read-out: Measured Ki (IC50) Value for Compounds: IC50. In kind it is biochemical. The protocol:
The IC50 value of a compound (i.e., the concentration of the compound that inhibits 50% of the enzymatic activity) was calculated according to the procedure reported in U.S. Pat. No. 6,653,340 B1, e.g., column 74 (incorporated by reference).
Specifically, the compounds were dissolved in a stock solution of DMSO at 10.0 or 100 mM. A portion of this stock solution was added to assay buffer in a final volume of 50 μL. Controls included buffer alone and enzyme solutions to which DMSO was added. Substrate was added to the reaction wells immediately or after incubation at room temperature. The reaction rates were measured spectrophotometrically by the generation of product at 405 nm for 600 sec. Background absorbance at 690 nm was measured and subtracted from the absorbance at 405 nm for each well.
The reaction rate for enzyme alone was compared to the rate of enzyme in the presence of inhibitor and the percent inhibition was calculated as shown below: Percent Inhibition=[Rate without inhibitor−Rate with inhibitor)/(Rate without inhibitor)]×100 Factor D Esterolytic Assay:
An established esterolytic assay for the measurement of Factor D activity and inhibition of Factor D activity was used (Kam, C. M.; McRae, B. J.; Harper, J. W.; Niemann, M. A.; Volanakis, J. E.; Powers, J. C. Human complement proteins D, C2, and B Active site mapping with peptide thioester substrates. J Biol. Chem. 1987, 262, 3444-3451). For this assay Z-Lys-SBzl, 1.29 mM (Kim, S.; Narayana, S. V. L; Volanakis, J. E. Mutational analysis of the substrate binding site of human complement Factor D. Biochemistry. 1994, 33, 14393-14399.) was used as the substrate for Factor D ([…]). Hydrolysis of this compound by Factor D liberated a free sulfhydryl group which is then reacted with 5,5′-dithiobis(2nitrobenzoic acid) producing an intense yellow color (Habeeb, A. F. S. A. Reaction of protein sulfhydryl groups with Ellman's Reagent. Methods in Enzymol. 1976, 25, 457-464). The assays were performed in 96 well microtiter plates and rates of hydrolysis were monitored at 405 nm on a Biotek Synergy H1 plate reader. Hydrolysis rates were reported as change in mOD/min. The assay was conducted in 100 mM HEPES, 500 mM NaCl, pH 7.5 containing 10% DMSO in a final volume of 50 μL per well.
An IC50, a compound concentration which inhibits 50% of the enzymatic activity, was calculated. Compounds in the examples were tested a minimum of three times.

Factor D, sequence (P00746 26-253): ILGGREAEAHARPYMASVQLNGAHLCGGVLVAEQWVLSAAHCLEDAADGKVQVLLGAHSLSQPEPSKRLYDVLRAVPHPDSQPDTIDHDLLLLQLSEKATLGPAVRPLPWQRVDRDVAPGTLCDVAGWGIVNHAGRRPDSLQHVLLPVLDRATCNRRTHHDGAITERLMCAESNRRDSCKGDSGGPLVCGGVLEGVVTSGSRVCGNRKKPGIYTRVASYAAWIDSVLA

In the case of `NCc1cc(-c2cc(COc3ccccc3CC(=O)O)cc3c(C(F)(F)F)coc23)ccn1` [Compound 175c, 2-(2-((7-(2-(aminomethyl)pyridin-4-yl)-3-(trifluoromethyl)benzofuran-5-yl)methoxy)phenyl)acetic acid], the IC50 was under 1000 nM.

In the case of `Cn1ccc2c(-c3cccc(CN)c3)cc(C(=O)Nc3ccccc3CC(=O)O)cc21` [Compound 45e, 2-(2-(4-(3-(aminomethyl)phenyl)-1-methyl-1H-indole-6-carboxamido)phenyl)acetic acid], the IC50 was under 1000 nM. For the compound `NCc1cccc(-c2cc(COc3ccccc3CC(=O)O)cc3cc(C(O)C(F)(F)F)oc23)c1` (stereo not drawn) [Compound 103d, 2-(2-((7-(3-(aminomethyl)phenyl)-2-(2,2,2-trifluoro-1-hydroxyethyl)benzofuran-5-yl)methoxy)phenyl)acetic acid], the IC50 was under 1000 nM. Under `CCN(CC)c1ccc(CC(=O)O)c(OCc2cc(-c3cccc(CN)c3)c3occc3c2)c1` [Compound 306f, 2-(2-((7-(3-(aminomethyl)phenyl)benzofuran-5-yl)methoxy)-4-(diethylamino)phenyl)acetic acid] stands under 1000 nM; under `NCc1cccc(-c2nc(C(=O)Nc3ccsc3CC(=O)O)cc3ccoc23)c1` [Compound 147c, 2-(3-(7-(3-(aminomethyl)phenyl)furo[2,3-c]pyridine-5-carboxamido)thiophen-2-yl)acetic acid], under 1000 nM. Under `COCc1cc2cc(COc3cc(C#N)ccc3CC(=O)O)cc(-c3cccc(CN)c3)c2o1` [Compound 458b, 2-(2-((7-(3-(aminomethyl)phenyl)-2-(methoxymethyl)benzofuran-5-yl)methoxy)-4-cyanophenyl)acetic acid] stands under 1000 nM; under `Cc1noc2c(-c3cccc(CN)c3)cc(COc3ccccc3CC(=O)O)cc12` [Compound 191h, 2-(2-((7-(3-(aminomethyl)phenyl)-3-methylbenzo[d]isoxazol-5-yl)methoxy)phenyl)acetic acid], under 1000 nM. For the compound `NCc1cccc(-c2cc(COc3cccnc3CC(=O)O)cc3ccoc23)c1` [Compound 230e, 2-(3-((7-(3-(aminomethyl)phenyl)benzofuran-5-yl)methoxy)pyridin-2-yl)acetic acid], the IC50 lay within 1000 to 10000 nM. Under `COCc1cc2cc(COc3cc(CN)ccc3CC(=O)O)cc(-c3cccc(CN)c3F)c2o1` [Compound 440c, 2-(4-(aminomethyl)-2-((7-(3-(aminomethyl)-2-fluorophenyl)-2-(methoxymethyl)benzofuran-5-yl)methoxy)phenyl)acetic acid] stands under 1000 nM; under `NCc1cc(-c2cc(COc3ccccc3CC(=O)O)cc3cc(CCO)oc23)ccn1` [Compound 185c, 2-(2-((7-(2-(aminomethyl)pyridin-4-yl)-2-(2-hydroxyethyl)benzofuran-5-yl)methoxy)phenyl)acetic acid], under 1000 nM. In the case of `NCc1cccc(-c2cc(COc3ccccc3CC(=O)O)cc3nccn23)c1` [Compound 107f, 2-(2-((5-(3-(aminomethyl)phenyl)imidazo[1,2-a]pyridin-7-yl)methoxy)phenyl)acetic acid], the IC50 was under 1000 nM. Under `CC(=O)NC(C(=O)O)c1ccccc1OCc1cc(-c2cccc(CN)c2)c2occc2c1` (stereo not drawn) [Compound 222f, 2-acetamido-2-(2-((7-(3-(aminomethyl)phenyl)benzofuran-5-yl)methoxy)phenyl)acetic acid] stands under 1000 nM; under `NCc1cccc(-c2cc(COc3ccccc3CC(=O)O)cc3cc(F)oc23)c1F` [Compound 373b, 2-(2-((7-(3-(aminomethyl)-2-fluorophenyl)-2-fluorobenzofuran-5-yl)methoxy)phenyl)acetic acid], under 1000 nM; under `CCOC(=O)Cc1ccccc1NC(=O)c1cc(-c2cccc(CN)c2)c2cc[nH]c2n1` [Compound 14c, ethyl 2-(2-(4-(3-(aminomethyl)phenyl)-1H-pyrrolo[2,3-b]pyridine-6-carboxamido)phenyl)acetate], over 10000 nM. Turning to `Cn1ncc2c(-c3cccc(CN)c3F)cc(COc3ccccc3CC(=O)O)cc21` [Compound 128g, 2-(2-((4-(3-(aminomethyl)-2-fluorophenyl)-1-methyl-1H-indazol-6-yl)methoxy)phenyl)acetic acid], the IC50 is under 1000 nM. In the case of `NCc1cccc(-c2cc(COc3ccccc3CC(=O)O)cc3cc(Cl)oc23)c1` [Compound 169f, 2-(2-((7-(3-(aminomethyl)phenyl)-2-chlorobenzofuran-5-yl)methoxy)phenyl)acetic acid], the IC50 was under 1000 nM.

With `NCc1cccc(-c2nc(C(=O)Nc3ccccc3CC(=O)O)nc3sccc23)c1` [Compound 32h, 2-(2-(4-(3-(aminomethyl)phenyl)thieno[2,3-d]pyrimidine-2-carboxamido)phenyl)acetic acid], the IC50 was under 1000 nM. Under `NCc1cccc(-c2cc(COc3ccccc3C(=O)O)cc3ccoc23)c1` [Compound 293c, 2-((7-(3-(aminomethyl)phenyl)benzofuran-5-yl)methoxy)benzoic acid] stands under 1000 nM; under `CC(C)n1ccc2c(-c3ccnc(CN)c3)cc(COc3ccccc3CC(=O)O)cc21` [Compound 118c, 2-(2-((4-(2-(aminomethyl)pyridin-4-yl)-1-isopropyl-1H-indol-6-yl)methoxy)phenyl)acetic acid], under 1000 nM; under `Cc1cc2cc(COc3cc(CN)ccc3CC(=O)O)cc(-c3cccc(CN)c3)c2o1` [Compound 257k, 2-(4-(aminomethyl)-2-((7-(3-(aminomethyl)phenyl)-2-methylbenzofuran-5-yl)methoxy)phenyl)acetic acid], under 1000 nM. Under `Cc1ccc(CC(=O)O)c(OCc2cc(-c3ccnc(CN)c3)c3ccn(C)c3c2)c1` [Compound 367c, 2-(2-((4-(2-(aminomethyl)pyridin-4-yl)-1-methyl-1H-indol-6-yl)methoxy)-4-methylphenyl)acetic acid] stands under 1000 nM. Under `NCc1cccc(-c2cc(COc3cc(C(N)=O)ccc3CC(=O)O)cc3ccoc23)c1F` [Compound 411e, 2-(2-((7-(3-(aminomethyl)-2-fluorophenyl)benzofuran-5-yl)methoxy)-4-carbamoylphenyl)acetic acid] stands under 1000 nM; under `Cc1ccc(S(=O)(=O)n2ccc3c(-c4cccc(CN)c4)cc(COc4ccccc4CC(=O)O)nc32)cc1` [Compound 49f, 2-(2-((4-(3-(aminomethyl)phenyl)-1-tosyl-1H-pyrrolo[2,3-b]pyridin-6-yl)methoxy)phenyl)acetic acid], under 1000 nM; under `COc1ccc(CC(=O)O)c(OCc2cc(-c3cccc(CN)c3)c3occ(C(F)(F)F)c3c2)c1` [Compound 488c, 2-(2-((7-(3-(aminomethyl)phenyl)-3-(trifluoromethyl)benzofuran-5-yl)methoxy)-4-methoxyphenyl)acetic acid], under 1000 nM. As for `Cc1oc2c(-c3cccc(CN)c3)cc(COc3ccccc3CC(=O)O)cc2c1C` [Compound 333g, 2-(2-((7-(3-(aminomethyl)phenyl)-2,3-dimethylbenzofuran-5-yl)methoxy)phenyl)acetic acid], the IC50 is under 1000 nM.

With `NCc1cncc(-c2cc(COc3ccccc3CC(=O)O)cc3ccoc23)c1` [Compound 106c, 2-(2-((7-(5-(aminomethyl)pyridin-3-yl)benzofuran-5-yl)methoxy)phenyl)acetic acid], the IC50 is 1000 to 10000 nM. Under `COc1ccc(CC(=O)O)c(OCc2cc(-c3ccnc(CN)c3)c3ccn(C(C)C)c3c2)c1` [Compound 447d, 2-(2-((4-(2-(aminomethyl)pyridin-4-yl)-1-isopropyl-1H-indol-6-yl)methoxy)-4-methoxyphenyl)acetic acid] stands under 1000 nM; under `NCc1cc(-c2cc(COc3cc(-c4ccccc4)ccc3CC(=O)O)cc3ccoc23)ccn1` [Compound 393d, 2-(3-((7-(2-(aminomethyl)pyridin-4-yl)benzofuran-5-yl)methoxy)-[1,1′-biphenyl]-4-yl)acetic acid], under 1000 nM. Under `NCc1cc(-c2cc(COc3ccccc3CC(=O)O)cc3ccoc23)ccn1` [Compound 74c, 2-(2-((7-(2-(aminomethyl)pyridin-4-yl)benzofuran-5-yl)methoxy)phenyl)acetic acid] stands under 1000 nM; under `NCc1cccc(-c2nc(C(=O)Nc3ccccc3CC(=O)O)cc3ccoc23)c1` [Compound 28d, 2-(2-(7-(3-(aminomethyl)phenyl)furo[2,3-c]pyridine-5-carboxamido)phenyl)acetic acid], under 1000 nM.
